Experimental data as given in article PMC12320245 (International Journal of Biological Sciences, 2025).

System: astrocytes
Experiment: Lysosomal pH detection (DND-189 fluorescence)
Assay type: cell-based

Q: Which “lysosomal pH (DND-189 fluorescence), reversal of BafA1 effect” value (300 μM cAMP with 100 nM BafA1) does the source give for Nc1ncnc2c1ncn2[C@@H]1O[C@@H]2COP(=O)(O)O[C@H]2[C@H]1O [cAMP, cyclic adenosine monophosphate] here?
A: effectively reversed BafA1-induced alkalization

Q: With O=S(=O)(NCCNC/C=C/c1ccc(Br)cc1)c1cccc2cnccc12 [H-89] as the molecule, how does the “lysosomal pH (DND-189 fluorescence), co-treatment with PKA inhibitor” value (BafA1 + AMX + H-89) read?
A: abolished the lysosomal acidification effect of AMX

Q: For CO/C1=C\C(C)=C\[C@@H](C)[C@@H](O)[C@@H](C)C/C(C)=C/C=C/[C@H](OC)[C@@H]([C@@H](C)[C@@H](O)[C@H](C)[C@@]2(O)C[C@@H](O)[C@H](C)[C@@H](C(C)C)O2)OC1=O [bafilomycin A1], which “lysosomal pH (DND-189 fluorescence)” value (100 nM BafA1, 1-hour exposure) is on record?
A: markedly alkalinized lysosomes
